Results: publication PMC5458078, “Global mapping of CARM1 substrates defines enzyme specificity and substrate recognition” (Nature Communications, 2017)
Where two headings read alike, the source gives them in different places.

Assays:
[1] = tested on: histone substrate; details: cited from earlier work
From the text: page 18: We agree with the reviewer’s assertion that proteomic experiments generally suffer from the abundance bias. However, we, and others, argue that analyses of post-translational modifications are less affected by this issue, as the immunoprecipitation and other methods of PTM enrichment rely on the abundance of the PTM itself, not the protein that bears it, i.e., a strongly modified low abundance protein is as likely to be pulled down as a lowly modified high abundance protein.

[2] = tested on: MCF7 cells; test: Quantitative nanoLC-MS/MS (TMT) of ADMA-containing peptides, CARM1 KO vs parental; assay type: cell-based, human; parameters: Fold change KO/WT: scale not given here
[3] = tested on: MCF7 CARM1 KO cells; test: Quantitative MS of ADMA-containing peptides in MCF7 CARM1 KO cells expressing CARM1 28-608 or CARM1 140-608, and in CARM1 KO; assay type: cell-based, human
[4] = MCF7, CARM1 KO vs WT, three biological replicates each
[5] = CARM1 140-608 vs WT, mean of 3 replicates, log2
[6] = KO vs WT, mean of 3 replicates, log2
[7] = MCF7, CARM1 KO (KO1-KO3) vs wild type (WT1-WT3)
[8] = CARM1 140-608 versus WT, mean of three replicates (log2)
[9] = KO versus WT, mean of three replicates (log2)
[10] = MCF7, CARM1 knockout vs wild type, n = 3 each
[11] = ratio on log2 scale, mean of 3 replicates
[12] = CARM1 KO vs wild type MCF7 cells, 3 biological replicates each
[13] = CARM1 140-608 versus WT, difference of mean log2 values
[14] = CARM1 KO versus WT, difference of mean log2 values
[15] = ADMA-containing peptide, CARM1 knockout (KO) vs wild type (WT) MCF7 cells, 6-plex TMT experiment #1, three biological replicates each, sheet "MCF7"
[16] = mean, CARM1 140-608 versus WT (log2 scale)
[17] = mean, CARM1 KO versus WT (log2 scale)
[18] = ADMA-containing peptide, MCF7, CARM1 knockout (KO1-3) vs wild type (WT1-3), TMT 6-plex experiment #1
[19] = CARM1 140-608 vs WT, mean of 3 replicates (log2 scale)
[20] = KO vs WT, mean of 3 replicates (log2 scale)

## PRMT1: protein arginine methyltransferase 1
[1]; PRMT1, histone substrate, ref Pak et al., Biochem 2011
  Km: 4.2 µM

## QVHPFHVYPQPGMQrFR
[2]; [4]
  Fold change KO/WT: -0.1867
[3]; [5]
  CARM1 140-608/WT: -0.2745
[3]; [6]
  KO/WT: -0.1867

## NRPAIArGAAGGGGR
[2]; [4]
  Fold change KO/WT: 0.06918
[3]; [5]
  CARM1 140-608/WT: -0.06003
[3]; [6]
  KO/WT: 0.534

## LQNAFWEHGASrAMLPGSPLFTrAPPPK
[2]; [7]
  Fold change KO/WT: -2.217
[3]; [8]
  CARM1 140-608/WT: -1.727
[3]; [9]
  KO/WT: -2.217

## KPPNQSLPLQPFQLAFGHQVNrQVFrQGPPPPNPVAAFPPQK
[2]; [10]
  Fold change KO/WT: -3.229
[3]; [11]
  CARM1 140-608/WT: -2.162
  KO/WT: -3.229

## ATSPrPrAFDGAGSSLGrAPSPrPGPGPLrQQGPPTPFDFLGR
[2]; [7]
  Fold change KO/WT: -2.635
[3]; [8]
  CARM1 140-608/WT: -2.092
[3]; [9]
  KO/WT: -2.635

## LTVPrYSIPTGDPPPYPEIASQLAQGR
[2]; [12]
  Fold change KO/WT: -2.163
[3]; [13]
  CARM1 140-608/WT: -0.6093
[3]; [14]
  KO/WT: -2.766

## DLPLHPrGFLPGHAPFrPLGSLGPrEYFIPGTrLPPPTHGPQEYPPPPAVR
[2]; [15]
  Fold change KO/WT: -1.638
[3]; difference of log2 means, CARM1 140-608 vs WT
  CARM1 140-608/WT: -0.2675
[3]; difference of log2 means, KO vs WT
  KO/WT: -2.443

## GPGGPrGGLGGGMR
[2]; [10]
  Fold change KO/WT: 0.08213
[3]; [16]
  CARM1 140-608/WT: 0.09567
[3]; [17]
  KO/WT: -0.1983

## GrGSLLLR
[2]; [15]
  Fold change KO/WT: 1.1394
[3]; [8]
  CARM1 140-608/WT: 0.6421
[3]; [9]
  KO/WT: 1.1394

## LINFQNHSPKPNGPVLPPHPQQLrYPPNQNIPrQAIKPNPLQMAFLAQQAIK
[2]; [18]
  Fold change KO/WT: -2.471
[3]; [13]
  CARM1 140-608/WT: 0.7941
[3]; [14]
  KO/WT: -2.136

## RGPPPPPPGrGGrGGSR
[2]; MCF7 CARM1 knockout vs wild type, 3 biological replicates each, values are on log2 scale
  Fold change KO/WT: 0.3155
[3]; [16]
  CARM1 140-608/WT: 0.09749
[3]; [17]
  KO/WT: 0.3155

## GSGTGIYSNAAPPPVTYQGNLYrPLLR
[2]; [12]
  Fold change KO/WT: -2.788
[3]; [13]
  CARM1 140-608/WT: 1.554
[3]; [14]
  KO/WT: -1.424

## QLPNAGPGAPPALGFSrFPAGAR
[2]; [4]
  Fold change KO/WT: -2.458
[3]; [5]
  CARM1 140-608/WT: -1.8557
[3]; [6]
  KO/WT: -2.458

## MGTPVPRPPQDMGQIGVrTPLGPrVAAPVGPVGPTPTVLPMGAPVPRPrGPPPPPGDENR
[2]; [7]
  Fold change KO/WT: -3.388
[3]; [19]
  CARM1 140-608/WT: -2.483
[3]; [20]
  KO/WT: -3.388

## TPGQPGPQrFDGPPGQQVQPrFDGVPQrFDGPQHQQASR
[2]; [15]
  Fold change KO/WT: -1.547
[3]; [8]
  CARM1 140-608/WT: -1.05
[3]; [9]
  KO/WT: -1.824

## FIQPrPTLNQPPPPLIRPANSMPPR
[2]; [7]
  Fold change KO/WT: -1.409
[3]; [19]
  CARM1 140-608/WT: 0.5669
[3]; [20]
  KO/WT: -1.409

## SPFLGSArPrLR
[2]; [18]
  Fold change KO/WT: -3.721
[3]
  CARM1 140-608/WT: -0.6148
  KO/WT: -3.721

B1: CARM1: coactivator-associated arginine methyltransferase 1 (protein)
chain: MAAAAAAVGPGAGGAGSAVPGGAGPCATVSVFPGARLLTIGDANGEIQRHAEQQALRLEVRAGPDSAGIALYSHEDVCVFKCSVSRETECSRVGKQSFIITLGCNSVLIQFATPNDFCSFYNILKTCRGHTLERSVFSERTEESSAVQYFQFYGYLSQQQNMMQDYVRTGTYQRAILQNHTDFKDKIVLDVGCGSGILSFFAAQAGARKIYAVEASTMAQHAEVLVKSNNLTDRIVVIPGKVEEVSLPEQVDIIISEPMGYMLFNERMLESYLHAKKYLKPSGNMFPTIGDVHLAPFTDEQLYMEQFTKANFWYQPSFHGVDLSALRGAAVDEYFRQPVVDTFDIRILMAKSVKYTVNFLEAKEGDLHRIEIPFKFHMLHSGLVHGLAFWFDVAFIGSIMTVWLSTAPTEPLTHWYQVRCLFQSPLFAKAGDTLSGTCLLIANKRQSYDISIVAQVDQTGSKSSNLLDLKNPFFRYTGTTPSPPPGSHYTSPSENMWNTGSTYNLSSGMAVAGMPTAYDLSSVIASGSSVGHNNLIPLANTGIVNHTHSRMGSIMSTGIVQGSSGAQGSGGGSTSAHYAVNSQFTMGGPAISMASPMSIPTNTMHYGS
modifications: left off: FLAG, end not stated, kept
[1]; CARM1, natural histone substrate, ref Jacques et al., 2016
  Km: 0.15 µM
